Results as given in patent USRE50528E1, “Compounds and compositions for modulating EGFR mutant kinase activities” (Yuhan Corporation, priority 2014, dated 2025).

Key:
EGFR mutant T790M = molecular target: T1, EGFR mutant T790M (Homo sapiens, UniProt P00533, T790M); assay: Kinase inhibition assay, EGFR mutant T790M; conditions: biochemical potency;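 also: truncated human EGFR mutant enzyme preincubated two hours with compound, then ATP plus ULight-PolyGT peptide for one hour, Europium-labeled antibody LANCE detection, IC50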
T1 construct: truncated human JAK3, EGFR mutants such as del E746-A750; purchased Carna Biosciences
T1 sequence (P00533 669-1210 T790M limits assumed): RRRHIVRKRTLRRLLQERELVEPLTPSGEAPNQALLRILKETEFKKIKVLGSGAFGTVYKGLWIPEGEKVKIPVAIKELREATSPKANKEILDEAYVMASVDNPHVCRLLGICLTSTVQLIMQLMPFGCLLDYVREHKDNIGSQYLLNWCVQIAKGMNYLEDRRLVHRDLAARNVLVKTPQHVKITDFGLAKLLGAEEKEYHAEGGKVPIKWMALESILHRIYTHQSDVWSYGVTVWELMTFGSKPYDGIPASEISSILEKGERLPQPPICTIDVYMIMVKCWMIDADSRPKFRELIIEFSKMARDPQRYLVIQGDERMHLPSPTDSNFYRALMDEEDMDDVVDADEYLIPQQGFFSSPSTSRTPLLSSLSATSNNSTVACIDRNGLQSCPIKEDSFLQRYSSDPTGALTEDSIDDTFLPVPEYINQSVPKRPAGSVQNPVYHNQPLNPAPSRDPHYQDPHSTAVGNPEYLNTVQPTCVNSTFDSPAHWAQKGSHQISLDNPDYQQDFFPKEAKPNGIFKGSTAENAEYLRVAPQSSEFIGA

[1] = molecular target: T2, EGFR mutant Del19 (E746-A750) (Homo sapiens, UniProt P00533, DEL746-750); assay: Kinase inhibition assay, EGFR del E746-A750; format: biochemical; conditions: read-out: EGFR mutants Del19 (E746-A750);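 also: truncated human EGFR mutant kinase, two-hour preincubation with compound, then one-hour reaction with ATP and ULight-PolyGT peptide, LANCE Europium-antibody phosphorylation readout, IC50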
T2 construct: truncated human JAK3, EGFR mutants such as del E746-A750; purchased Carna Biosciences
T2 sequence (P00533 with tags, fused parts or gaps DEL746-750 limits assumed): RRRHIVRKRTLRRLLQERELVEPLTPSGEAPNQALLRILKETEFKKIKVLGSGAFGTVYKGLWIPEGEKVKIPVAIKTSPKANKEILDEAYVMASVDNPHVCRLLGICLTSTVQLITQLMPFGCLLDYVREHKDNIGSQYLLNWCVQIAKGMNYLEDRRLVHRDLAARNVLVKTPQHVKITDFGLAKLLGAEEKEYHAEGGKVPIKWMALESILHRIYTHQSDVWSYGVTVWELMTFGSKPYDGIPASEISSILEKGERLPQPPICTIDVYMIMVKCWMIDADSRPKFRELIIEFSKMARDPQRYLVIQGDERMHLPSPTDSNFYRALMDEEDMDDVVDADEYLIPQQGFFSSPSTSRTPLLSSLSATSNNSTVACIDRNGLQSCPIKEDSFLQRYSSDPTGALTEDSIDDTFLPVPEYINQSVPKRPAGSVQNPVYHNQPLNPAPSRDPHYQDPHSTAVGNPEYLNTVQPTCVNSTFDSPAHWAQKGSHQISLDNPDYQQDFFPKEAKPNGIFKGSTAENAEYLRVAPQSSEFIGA

EGFR mutant L858R = molecular target: T3, EGFR mutant L858R (Homo sapiens, UniProt P00533, L858R); assay: Kinase inhibition assay, EGFR L858R; format: biochemical; conditions: read-out: EGFR mutants L858R;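 also: truncated human EGFR L858R kinase with compound preincubation, ULight-PolyGT peptide phosphorylation read by Europium-antibody Lance detection, IC50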
T3 construct: truncated human JAK3, EGFR mutants such as del E746-A750; purchased Carna Biosciences
T3 sequence (P00533 669-1210 L858R limits assumed): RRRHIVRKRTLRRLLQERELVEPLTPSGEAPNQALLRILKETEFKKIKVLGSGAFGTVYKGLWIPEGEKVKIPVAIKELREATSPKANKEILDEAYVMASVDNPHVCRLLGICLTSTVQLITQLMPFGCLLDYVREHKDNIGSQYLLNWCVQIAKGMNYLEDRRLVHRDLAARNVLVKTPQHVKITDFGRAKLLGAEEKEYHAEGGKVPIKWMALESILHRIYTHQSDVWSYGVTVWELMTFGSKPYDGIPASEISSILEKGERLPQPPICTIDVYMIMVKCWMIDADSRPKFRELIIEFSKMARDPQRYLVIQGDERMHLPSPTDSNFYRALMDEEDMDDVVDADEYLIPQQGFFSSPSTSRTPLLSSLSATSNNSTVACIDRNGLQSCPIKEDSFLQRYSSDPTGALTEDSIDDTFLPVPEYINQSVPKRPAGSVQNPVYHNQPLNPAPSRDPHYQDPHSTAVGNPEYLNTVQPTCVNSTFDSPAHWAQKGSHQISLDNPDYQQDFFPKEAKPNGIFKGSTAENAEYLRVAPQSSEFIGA

EGFR mutant L858R/T790M = molecular target: T4, EGFR mutant L858R/T790M (Homo sapiens, UniProt P00533, L858R/T790M); assay: Kinase inhibition assay, EGFR L858R/T790M; format: biochemical; conditions: read-out: EGFR mutants L858R/T790M;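 also: truncated human enzyme preincubated two hours with compound, then one hour with one millimolar ATP and ULight-PolyGT peptide, Europium-labeled antibody detection, IC50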
T4 construct: truncated human JAK3, EGFR mutants such as del E746-A750; purchased Carna Biosciences
T4 sequence (P00533 669-1210 T790M/L858R limits assumed): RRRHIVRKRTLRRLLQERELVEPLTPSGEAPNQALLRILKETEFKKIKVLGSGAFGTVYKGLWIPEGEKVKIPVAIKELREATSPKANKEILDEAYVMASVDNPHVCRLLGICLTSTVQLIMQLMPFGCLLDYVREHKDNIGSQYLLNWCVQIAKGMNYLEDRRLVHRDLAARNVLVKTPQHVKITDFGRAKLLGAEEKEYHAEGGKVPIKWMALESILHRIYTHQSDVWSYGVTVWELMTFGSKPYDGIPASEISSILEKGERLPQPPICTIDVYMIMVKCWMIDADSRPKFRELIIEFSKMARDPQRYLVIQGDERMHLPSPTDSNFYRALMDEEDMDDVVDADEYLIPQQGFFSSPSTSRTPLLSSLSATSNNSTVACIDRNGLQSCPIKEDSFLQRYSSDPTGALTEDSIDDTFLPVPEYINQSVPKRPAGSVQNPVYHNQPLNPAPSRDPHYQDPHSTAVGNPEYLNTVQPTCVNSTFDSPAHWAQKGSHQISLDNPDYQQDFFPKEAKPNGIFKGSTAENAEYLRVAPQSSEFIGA

EGFR mutant Del19/T790M = molecular target: T5, EGFR mutant Del19/T790M (Homo sapiens, UniProt P00533, DEL746-750/T790M); assay: Kinase inhibition assay, EGFR del E746-A750/T790M; format: biochemical; conditions: read-out: EGFR mutants Del19/T790M
T5 construct: truncated human JAK3, EGFR mutants such as del E746-A750; purchased Carna Biosciences
T5 sequence (P00533 with tags, fused parts or gaps DEL746-750/T790M limits assumed): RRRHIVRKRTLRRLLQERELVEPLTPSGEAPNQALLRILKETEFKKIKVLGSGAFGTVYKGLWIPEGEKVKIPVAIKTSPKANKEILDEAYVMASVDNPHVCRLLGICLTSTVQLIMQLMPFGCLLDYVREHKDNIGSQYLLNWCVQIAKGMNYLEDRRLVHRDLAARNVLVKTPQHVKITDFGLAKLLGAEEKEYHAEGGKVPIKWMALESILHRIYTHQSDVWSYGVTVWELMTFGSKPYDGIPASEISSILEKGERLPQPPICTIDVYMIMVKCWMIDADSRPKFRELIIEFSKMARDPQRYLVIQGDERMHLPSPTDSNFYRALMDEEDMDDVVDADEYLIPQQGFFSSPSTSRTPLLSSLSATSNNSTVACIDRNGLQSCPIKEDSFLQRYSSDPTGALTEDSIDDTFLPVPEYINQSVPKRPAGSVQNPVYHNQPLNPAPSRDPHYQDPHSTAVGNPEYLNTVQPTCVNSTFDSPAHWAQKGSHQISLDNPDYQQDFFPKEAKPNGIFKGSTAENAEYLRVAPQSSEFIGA

SYK = molecular target: T6, SYK (Homo sapiens, UniProt P43405); assay: Kinase inhibition assay, SYK; format: biochemical; conditions: biochemical potency;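 also: purified full-length human SYK pre-incubated 30 min with compound, then ULight-TK peptide phosphorylation for 1 h, detected with Europium-labeled antibody in Lance buffer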
T6 construct: Purified human, full-length SYK, KDR; purchased Carna Biosciences

H2073 (EGFR wildtype) = assay: Cell viability assay, H2073; format: cell-based; conditions: NCI-H2073; cellular potency; 72-hour incubation; ATPLite;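 also: NSCLC cell line whose survival relies on wildtype EGFR, treated with serially diluted compound, cytotoxic effect judged from remaining cell viability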
[2] = tested on: PC9 (EGFR del E746-A750 mutant); assay: Cell viability assay, PC9; format: cell-based;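 also: NSCLC PC9 cells, whose viability relies on EGFR del E746-A750, exposed to serially diluted compound for 72 h at 37 °C, ATPLite read-out, IC50, H2073 as EGFR wildtype line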
[3] = tested on: H1975 (EGFR L858R/T790M mutant); assay: Cell viability assay, H1975; format: cell-based;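 also: NSCLC cells whose survival relies on EGFR L858R/T790M, exposed 72 h to serially diluted compound, ATP-based viability readout, with the H2073 line (wildtype EGFR dependent) as wildtype comparator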

Row | Structure (SMILES) | IC50 (EGFR mutant T790M) [µM] | IC50 [1] [µM] | IC50 (EGFR mutant L858R) [µM] | IC50 (EGFR mutant L858R/T790M) [µM] | IC50 (EGFR mutant Del19/T790M) [µM] | IC50 (SYK) [µM] | IC50 (H2073 (EGFR wildtype)) [µM] | Selectivity over wildtype, Wildtype vs mutant H2073/PC9 (fold) ([2]; cellular potency ratio) | IC50 ([2]; cellular potency, 72-hour incubation, ATPLite, read-out: EGFR Mutants PC9) [µM] | IC50 ([3]; Homo sapiens, NCI-H1975, cellular potency, 72-hour incubation, ATPLite, read-out: EGFR Mutants H1975) [µM] | Selectivity over wildtype, Wildtype vs mutant H2073/H1975 (fold) ([3]; cellular potency ratio)
1 | C=CC(=O)Nc1cc(Nc2nccc(-n3cc(CN4CCC4)c(C4CC4)n3)n2)c(OC)cc1N(C)C1COC1 [Compound 109, N-(5-(4-(4-(azetidin-1-ylmethyl)-3-cyclopropyl-1H-pyrazol-1-yl)pyrimidin-2-ylamino)-4-methoxy-2-(methyl(oxetan-3-yl)amino)phenyl)acrylamide] | < 0.02 | < 0.02 | < 0.02 | < 0.02 | < 0.02 | > 1 |  |  |  |  | 
2 | C=CC(=O)Nc1cc(Nc2nccc(-n3cc(CN(C)C)c(C(C)C)n3)n2)c(OC)cc1N(C)C1COC1 [Compound 114, N-(5-(4-(4-((dimethylamino)methyl)-3-isopropyl-1H-pyrazol-1-yl)pyrimidin-2-ylamino)-4-methoxy-2-(methyl(oxetan-3-yl)amino)phenyl)acrylamide] | < 0.02 | < 0.02 | < 0.02 | < 0.02 | < 0.02 | 0.201 to 1 |  |  |  |  | 
3 | C=CC(=O)Nc1cc(Nc2nccc(-n3cc(CN4CCC4)c(C(C)C)n3)n2)c(OC)cc1N(C)C1COC1 [Compound 115] | < 0.02 | < 0.02 | < 0.02 | < 0.02 | < 0.02 | > 1 |  |  |  |  | 
4 | C=CC(=O)Nc1cc(Nc2nccc(-n3cc(CN4CCC4)c(C(C)C)n3)n2)c(OC)cc1N1CCOCC1 [Compound 119, N-(5-(4-(4-(azetidin-1-ylmethyl)-3-isopropyl-1H-pyrazol-1-yl)pyrimidin-2-ylamino)-4-methoxy-2-morpholinophenyl)acrylamide] | < 0.02 | < 0.02 | < 0.02 | < 0.02 | < 0.02 | 0.201 to 1 |  |  |  |  | 
5 | C=CC(=O)Nc1cc(Nc2ncc(C)c(-n3cc(CN(C)C)c(-c4ccccc4)n3)n2)c(OC)cc1N1CCOCC1 [Compound 120, N-(5-(4-(4-((dimethylamino)methyl)-3-phenyl-1H-pyrazol-1-yl)-5-methylpyrimidin-2-ylamino)-4-methoxy-2-morpholinophenyl)acrylamide] | < 0.02 | < 0.02 | < 0.02 | < 0.02 | < 0.02 | 0.02 to 0.2 |  |  |  |  | 
6 | C=CC(=O)Nc1cc(Nc2nccc(-n3cc(CN(C)C)c(-c4ccoc4)n3)n2)c(OC)cc1N1CCOCC1 [Compound 127, N-(5-(4-(4-((dimethylamino)methyl)-3-(furan-3-yl)-1H-pyrazol-1-yl)pyrimidin-2-ylamino)-4-methoxy-2-morpholinophenyl)acrylamide] | < 0.02 | < 0.02 | < 0.02 | < 0.02 | < 0.02 | 0.201 to 1 |  |  |  |  | 
7 | C=CC(=O)Nc1cc(Nc2nccc(-n3cc(CN(C)C)c(C4CC4)n3)n2)c(OC)cc1N1CCN(C(C)=O)CC1 [Compound 129, N-(2-(4-acetylpiperazin-1-yl)-5-(4-(3-cyclopropyl-4-((dimethylamino)methyl)-1H-pyrazol-1-yl)pyrimidin-2-ylamino)-4-methoxyphenyl)acrylamide] | < 0.02 | < 0.02 | < 0.02 | < 0.02 | < 0.02 | 0.201 to 1 |  |  |  |  | 
8 | C=CC(=O)Nc1cc(Nc2ncc(F)c(-n3cc(CN4CCC4)c(-c4ccoc4)c3)n2)c(OC)cc1N1CCOCC1 [Compound 130, N-(5-(4-(3-(azetidin-1-ylmethyl)-4-(furan-3-yl)-1H-pyrrol-1-yl)-5-fluoropyrimidin-2-ylamino)-4-methoxy-2-morpholinophenyl)acrylamide] | < 0.02 | < 0.02 | < 0.02 | < 0.02 | < 0.02 | 0.201 to 1 |  |  |  |  | 
9 | C=CC(=O)Nc1cc(Nc2ncc(F)c(-n3cc(CN(C)C)c(-c4ccoc4)c3)n2)c(OC)cc1N1CCOCC1 [Compound 131, N-(5-(4-(3-((dimethylamino)methyl)-4-(furan-3-yl)-1H-pyrrol-1-yl)-5-fluoropyrimidin-2-ylamino)-4-methoxy-2-morpholinophenyl)acrylamide] | < 0.02 | < 0.02 | < 0.02 | < 0.02 | < 0.02 | 0.201 to 1 |  |  |  |  | 
10 | C=CC(=O)Nc1cc(Nc2nccc(-n3cc(CN4CCC4)c(-c4ccccc4)n3)n2)c(OC)cc1N1CCN(C(C)=O)CC1 [Compound 134, N-(2-(4-acetylpiperazin-1-yl)-5-(4-(4-(azetidin-1-ylmethyl)-3-phenyl-1H-pyrazol-1-yl)pyrimidin-2-ylamino)-4-methoxyphenyl)acrylamide] | < 0.02 | < 0.02 | < 0.02 | < 0.02 | < 0.02 | 0.201 to 1 |  |  |  |  | 
11 | C=CC(=O)Nc1cc(Nc2nccc(-n3cc(CN(C)C)c(-c4ccccc4)n3)n2)c(OC)cc1N1CCN(C(C)=O)CC1 [Compound 135, N-(2-(4-acetylpiperazin-1-yl)-5-(4-(4-((dimethylamino)methyl)-3-phenyl-1H-pyrazol-1-yl)pyrimidin-2-ylamino)-4-methoxyphenyl)acrylamide] | < 0.02 | < 0.02 | < 0.02 | < 0.02 | < 0.02 | > 1 |  |  |  |  | 
12 | C=CC(=O)Nc1cc(Nc2nccc(-n3cc(CN4CCC4)c(C4CC4)n3)n2)c(OC)cc1N1CCN(C(C)=O)CC1 [Compound 138, N-(2-(4-acetylpiperazin-1-yl)-5-(4-(4-(azetidin-1-ylmethyl)-3-cyclopropyl-1H-pyrazol-1-yl)pyrimidin-2-ylamino)-4-methoxyphenyl)acrylamide] | < 0.02 | < 0.02 | < 0.02 | < 0.02 | < 0.02 | > 1 |  |  |  |  | 
13 | C=CC(=O)Nc1cc(Nc2nccc(-n3cc(CN4CCC4)c(C4CC4)n3)n2)c(OC)cc1N1CCC1 [Compound 139, N-(2-(azetidin-1-yl)-5-(4-(4-(azetidin-1-ylmethyl)-3-cyclopropyl-1H-pyrazol-1-yl)pyrimidin-2-ylamino)-4-methoxyphenyl)acrylamide] | < 0.02 | < 0.02 | < 0.02 | < 0.02 | < 0.02 | > 1 |  |  |  |  | 
14 | C=CC(=O)Nc1cc(Nc2nccc(-n3cc(CN(C)CC)c(C4CC4)n3)n2)c(OC)cc1N1CCOCC1 [Compound 140, N-(5-(4-(3-cyclopropyl-4-((ethyl(methyl)amino)methyl)-1H-pyrazol-1-yl)pyrimidin-2-ylamino)-4-methoxy-2-morpholinophenyl)acrylamide] | < 0.02 | < 0.02 | < 0.02 | < 0.02 | < 0.02 | > 1 |  |  |  |  | 
15 | C=CC(=O)Nc1cc(Nc2ncc(F)c(-n3cc(C)c(CN4CCC4)c3)n2)c(OC)cc1N1CCC1 [Compound 141, N-(2-(azetidin-1-yl)-5-(4-(3-(azetidin-1-ylmethyl)-4-methyl-1H-pyrrol-1-yl)-5-fluoropyrimidin-2-ylamino)-4-methoxyphenyl)acrylamide] | < 0.02 | < 0.02 | < 0.02 | < 0.02 | < 0.02 | 0.201 to 1 |  |  |  |  | 
16 | Cc1cn(-c2ccnc(Nc3ccc(-c4ccccc4)c(C)c3)n2)cc1CN1CC(O)C1 [Compound 150, 1-((4-methyl-1-(2-(2-methylbiphenyl-4-ylamino)pyrimidin-4-yl)-1H-pyrrol-3-yl)methyl)azetidin-3-ol, reference compound] | > 1 | > 1 | > 1 | 0.201 to 1 | > 1 | > 1 |  |  |  |  | 
17 | COc1cc(N2CCOCC2)c([N+](=O)[O-])cc1Nc1nccc(-n2cc(CN(C)C)c(-c3ccccc3)n2)n1 [Compound 152, 4-(4-((dimethylamino)methyl)-3-phenyl-1H-pyrazol-1-yl)-N-(2-methoxy-4-morpholino-5-nitrophenyl)pyrimidin-2-amine, reference compound] | > 1 | > 1 | > 1 | > 1 | > 1 | > 1 |  |  |  |  | 
18 | COc1cc(N2CCOCC2)c(N)cc1Nc1nccc(-n2cc(CN(C)C)c(-c3ccccc3)n2)n1 [Compound 153, N1-(4-(4-((dimethylamino)methyl)-3-phenyl-1H-pyrazol-1-yl)pyrimidin-2-yl)-6-methoxy-4-morpholinobenzene-1,3-diamine, reference compound] | > 1 | > 1 | > 1 | > 1 | > 1 | > 1 |  |  |  |  | 
19 | C=CCC(=O)Nc1cc(Nc2nccc(-n3cc(CN(C)C)c(-c4ccccc4)n3)n2)c(OC)cc1N1CCOCC1 [Compound 154, N-(5-(4-(4-((dimethylamino)methyl)-3-phenyl-1H-pyrazol-1-yl)pyrimidin-2-ylamino)-4-methoxy-2-morpholinophenyl)but-3-enamide, reference compound] |  |  |  |  |  |  | > 1 | <20 | 0.02 to 0.2 | 0.201 to 1 | <20
